ChEMBL document CHEMBL5728688, “Substituted pyridines as TYK2 inhibitors” (2021)
pKd: −log10 of the molar value.

Biological target: Non-receptor tyrosine-protein kinase TYK2 (Homo sapiens, UniProt P29597)
Test: TYK2 JH2 Domain Binding Assay: DiscoverX's KINOMEscan™ is a popular platform for kinase profiling, frequently used in academic and industry witnessed by publications, therefore we selected this platform as a primary cell-free screening assay to determine the relative binding potency and guide chemistry SAR.Developed by DiscoverX, KINOMEscan™ employs proprietary active-site dependent competition binding assays to determine how compounds bind to kinases. KINOMEscan™ is based on a competition binding assay that quantitatively measures the ability of a compound to compete with an immobilized, active site directed ligand. The assay is performed by combining three components: DNA-tagged kinase; immobilized ligand; and a test compound. […] The liganded beads were blocked with excess biotin and washed with blocking buffer (SeaBlock (Pierce), 1% BSA, 0.05% Tween 20, 1 mM DTT) to remove unbound ligand and to reduce non-specific binding. […] Test compounds were prepared as 111× stocks in 100% DMSO. All test compounds were shipped to DiscoverX in DMSO with concentration of 10 mM. […] Each compound was tested in duplicate. […] The compounds were then diluted directly into the assays such that the final concentration of DMSO was 0.9%. All reactions performed in polypropylene 384-well plate. Each was a final volume of 0.02 ml. […] […]

Sequence of Non-receptor tyrosine-protein kinase TYK2 (P29597 whole entry, the tested form may be a part): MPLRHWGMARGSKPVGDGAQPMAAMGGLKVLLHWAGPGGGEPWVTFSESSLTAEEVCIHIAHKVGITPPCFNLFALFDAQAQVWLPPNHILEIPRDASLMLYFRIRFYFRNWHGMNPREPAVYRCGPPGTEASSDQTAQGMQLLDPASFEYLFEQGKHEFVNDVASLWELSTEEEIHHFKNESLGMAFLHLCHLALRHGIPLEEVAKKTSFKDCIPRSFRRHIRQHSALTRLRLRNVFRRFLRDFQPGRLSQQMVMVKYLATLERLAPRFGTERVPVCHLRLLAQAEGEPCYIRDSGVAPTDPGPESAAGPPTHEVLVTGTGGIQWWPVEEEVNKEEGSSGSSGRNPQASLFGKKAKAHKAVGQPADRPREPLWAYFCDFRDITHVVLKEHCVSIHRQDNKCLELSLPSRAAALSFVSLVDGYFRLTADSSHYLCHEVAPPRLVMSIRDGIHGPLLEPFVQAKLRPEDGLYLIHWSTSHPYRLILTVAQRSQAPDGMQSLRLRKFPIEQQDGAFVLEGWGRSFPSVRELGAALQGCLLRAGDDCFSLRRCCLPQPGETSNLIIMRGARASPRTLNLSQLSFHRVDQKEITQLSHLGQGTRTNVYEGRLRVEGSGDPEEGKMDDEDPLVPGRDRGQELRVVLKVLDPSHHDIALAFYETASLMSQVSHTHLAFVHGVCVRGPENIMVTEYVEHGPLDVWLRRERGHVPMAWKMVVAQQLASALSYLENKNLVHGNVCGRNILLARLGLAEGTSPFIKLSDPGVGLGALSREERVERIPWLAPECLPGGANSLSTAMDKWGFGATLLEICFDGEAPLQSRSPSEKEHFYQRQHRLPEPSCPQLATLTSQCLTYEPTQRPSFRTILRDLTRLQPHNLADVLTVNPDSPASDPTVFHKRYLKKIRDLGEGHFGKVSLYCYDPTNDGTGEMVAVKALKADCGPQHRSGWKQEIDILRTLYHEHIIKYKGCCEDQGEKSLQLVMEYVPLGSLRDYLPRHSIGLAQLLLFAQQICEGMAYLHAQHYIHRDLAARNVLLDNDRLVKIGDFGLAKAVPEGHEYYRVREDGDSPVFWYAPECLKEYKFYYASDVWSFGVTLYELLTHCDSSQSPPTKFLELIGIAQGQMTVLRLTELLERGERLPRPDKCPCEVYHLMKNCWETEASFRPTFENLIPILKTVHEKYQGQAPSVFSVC

Q: With `CNC(=O)c1nnc(N2CCC(C)(C)C2=O)cc1Nc1cccc(-c2ncn(C)n2)c1OC` as the molecule, how does the pKd read?
A: The pKd was greater than 9.00.
